The supplement of paper PMC13380429
± gives the standard deviation of the averaged measurements.

Key:
Details in all cases: 72 h
Calu-3 [1] = assay: drug sensitivity score (DSS) for viability; higher = more toxic; extreme values may be limits of the assay
Vero E6 [2] = assay: as above
Caco-2 [3] = assay: as above
HepG2 [4] = assay: as above
Calu-3 [5] = assay: relative viability EC50 (midpoint between 100% and the lowest measured viability); higher = less toxic
Vero E6 [6] = assay: as above
Caco-2 [7] = assay: as above
HepG2 [8] = assay: as above
Calu-3 [9] = assay: cell viability relative to DMSO; higher = less toxic
Vero E6 [10] = assay: as above
Caco-2 [11] = assay: as above
HepG2 [12] = assay: as above
U2OS [13] = assay: drug sensitivity score (DSS) for viability; higher = more toxic; extreme values may be limits of the assay
U2OS [14] = assay: relative viability EC50 (midpoint between 100% and the lowest measured viability); higher = less toxic
U2OS [15] = assay: cell viability relative to DMSO; higher = less toxic

Structure (SMILES) | drug sensitivity score (Calu-3 [1]) | drug sensitivity score (Vero E6 [2]) | drug sensitivity score (Caco-2 [3]) | drug sensitivity score (HepG2 [4]) | relative viability EC50 (Calu-3 [5]) | relative viability EC50 (Vero E6 [6]) | relative viability EC50 (Caco-2 [7]) | relative viability EC50 (HepG2 [8]) | cell viability (Calu-3 [9]; 1 nM) | cell viability (Calu-3 [9]; 10 nM) | cell viability (Calu-3 [9]; 100 nM) | cell viability (Calu-3 [9]; 1000 nM) | cell viability (Calu-3 [9]; 10000 nM) | cell viability (Vero E6 [10]; 1 nM) | cell viability (Vero E6 [10]; 10 nM) | cell viability (Vero E6 [10]; 100 nM) | cell viability (Vero E6 [10]; 1000 nM) | cell viability (Vero E6 [10]; 10000 nM) | cell viability (Caco-2 [11]; 1 nM) | cell viability (Caco-2 [11]; 10 nM) | cell viability (Caco-2 [11]; 100 nM) | cell viability (Caco-2 [11]; 1000 nM) | cell viability (Caco-2 [11]; 10000 nM) | cell viability (HepG2 [12]; 1 nM) | cell viability (HepG2 [12]; 10 nM) | cell viability (HepG2 [12]; 100 nM) | cell viability (HepG2 [12]; 1000 nM) | cell viability (HepG2 [12]; 10000 nM) | drug sensitivity score (U2OS [13]) | relative viability EC50 (U2OS [14]) | cell viability (U2OS [15]; 1 nM) | cell viability (U2OS [15]; 10 nM) | cell viability (U2OS [15]; 100 nM) | cell viability (U2OS [15]; 1000 nM) | cell viability (U2OS [15]; 10000 nM)
CC1=C(/C=C/C(=C/C=C/C(C)=C/C(=O)O)c2ccc(C)cc2)C(C)(C)CCC1 | 0 | 0 | 0 | 0 | > 10 µM | > 10 µM | > 10 µM | > 10 µM | 94.6% | 106% | 112% | 102% | 99.3% | 99.1% | 95.2% | 101% | 97.2% | 108% | 90.9% | 94.2% | 95.4% | 98.4% | 97.1% | 106% | 103% | 98.2% | 94.2% | 98.4% |  |  |  |  |  |  | 
CCCCCCNC(=O)Nc1ccc(S(=O)(=O)Nc2ccc(CCNC[C@H](O)COc3ccc(O)cc3)cc2)cc1 | 0 | 0 | 0 | 0 | > 10 µM | > 10 µM | > 10 µM | > 10 µM | 105% | 96.8% | 93.5% | 102% | 88.3% | 92.7% | 95.8% | 91% | 96.2% | 110% | 102% | 82.7% | 102% | 102% | 104% | 95.6% | 110% | 92.1% | 103% | 107% | 0 | > 10 µM | 106% | 96.6% | 101% | 99.9% | 103%
CN(C(=O)CN1C(=O)COc2cc(Cl)c(Cl)cc21)[C@@H](CN1CCCC1)c1ccc(-c2cccc(C(N)=O)c2)cc1 | 4.3 | 5.8 | 5.5 | 5.1 | 3.79 µM | 2.94 µM | 2.94 µM | 3.09 µM | 109% | 111% | 102% | 114% | 7% | 96.9% | 97% | 94.9% | 97.1% | 2.8% | 97.9% | 99% | 101% | 97.1% | 7.2% | 95% | 104% | 91.5% | 99% | 10.5% | 6.2 | 2.68 µM | 100% | 97.1% | 104% | 94.1% | 3.5%
COC1(C2=NCCN2)COc2ccccc2O1 (stereo not given) | 0 | 0 | 0 | 0 | > 10 µM | > 10 µM | > 10 µM | > 10 µM | 100% | 103% | 96% | 93% | 94.6% | 103% | 96% | 93.3% | 100% | 98.2% | 99.5% | 91.5% | 101% | 89.7% | 91.4% | 109% | 109% | 91.2% | 107% | 99.3% | 0 | > 10 µM | 96.2% | 95.1% | 103% | 97.9% | 101%
COc1cccc(Nc2ncnn3ccc(CN4CC[C@@H](N)[C@H](O)C4)c23)c1 | 21.9 | 14.4 | 7.5 | 0.1 | 0.0837 µM | 0.292 µM | 0.335 µM | > 10 µM | 103% | 94.4% | 46.5% | 23.7% | 9.1% | 100% | 89.4% | 65.7% | 51.4% | 14.8% | 89.2% | 91% | 81.2% | 76.1% | 48.6% | 105% | 102% | 102% | 99% | 87.9% | 3.5 |  | 96.2% | 96.5% | 93.2% | 92.6% | 55.7%
COc1ccccc1N1CCN(CCCCNC(=O)c2ccc(-c3ccc(C(C)=O)cc3)cc2)CC1 | 0 | 0 | 0 | 0.5 | > 10 µM | > 10 µM | > 10 µM | > 10 µM | 101% | 92.6% | 110% | 102% | 96.5% | 104% | 99.5% | 101% | 102% | 95.5% | 93.7% | 94.5% | 119% | 106% | 110% | 104% | 104% | 96.4% | 94.6% | 83.8% | 0 | > 10 µM | 101% | 95.8% | 102% | 98.4% | 101%
Cc1c(C)c(NCC(=O)N(C)C2CCN(Cc3ccc(C(N)=O)cc3)CC2)c(C)c(C)c1N | 0 | 0 | 0 | 0 | > 10 µM | > 10 µM | > 10 µM | > 10 µM | 105% | 91% | 101% | 104% | 103% | 96.1% | 97.7% | 92.4% | 101% | 105% | 98.7% | 99.6% | 92.7% | 96.6% | 112% | 97.5% | 100% | 101% | 102% | 96.7% | 0 | > 10 µM | 100% | 97% | 102% | 99.2% | 98.1%
Nc1ncc(Cc2ccc(Br)cc2)s1 | 0 | 0 | 0 | 0 | > 10 µM | > 10 µM | > 10 µM | > 10 µM | 95.6% | 91.8% | 103% | 94.3% | 119% | 99.9% | 94% | 100% | 92.2% | 107% | 97.3% | 95.1% | 85.2% | 99.3% | 96.7% | 98% | 88.6% | 115% | 96.3% | 99.9% | 0 | > 10 µM | 93.5% | 102% | 94.9% | 101% | 102%
O=C(Nc1ccccc1)N[C@H]1C[C@H](C(=O)O)Nc2cc(Cl)cc(Cl)c21 | 0 | 0 | 0 | 0 | > 10 µM | > 10 µM | > 10 µM | > 10 µM | 105% | 89.8% | 108% | 95.8% | 97.1% | 106% | 100% | 100% | 96.7% | 99.8% | 98.1% | 104% | 104% | 104% | 92.5% | 96.4% | 103% | 96.3% | 84.6% | 104% | 0 | > 10 µM | 98% | 104% | 103% | 105% | 100%
OC(CCCN1CCN(c2ncc(F)cn2)CC1)c1ccc(F)cc1 (stereo not given) | 0 | 0 | 0 | 0 | > 10 µM | > 10 µM | > 10 µM | > 10 µM | 107% | 99.7% | 102% | 104% | 94.7% | 101% | 98.1% | 94.9% | 99% | 95.4% | 98.4% | 99.1% | 101% | 94.2% | 95.7% | 95.8% | 100% | 98.3% | 96% | 97.5% |  |  |  |  |  |  | 
C#C[C@]1(O)CC[C@H]2[C@@H]3CCC4=CC(=O)CC[C@@H]4[C@H]3CC[C@@]21C [Norethindrone (Norethisterone)] | 0 | 0 | 0 | 0 | > 10 µM | > 10 µM | > 10 µM | > 10 µM | 103% | 105% | 93.9% | 110% | 99.9% | 98.4% | 97.4% | 94.6% | 93.6% | 109% | 94% | 103% | 97% | 101% | 116% | 103% | 89.5% | 94.1% | 100% | 114% |  |  |  |  |  |  | 
C[C@]12N[C@H](Cc3ccccc31)c1ccccc12 [dizocilpine-(-)] | 0 | 0 | 0 | 1.85 ± 2.6 | > 10 µM | > 10 µM | > 10 µM |  | 97.8 ± 11% | 96.6 ± 3% | 101 ± 7.7% | 96.8 ± 6.1% | 98.5 ± 11% | 95.8% | 97.2% | 101% | 93% | 97% | 98.7 ± 0.42% | 94.5 ± 1.2% | 97.7 ± 1.8% | 102 ± 6.2% | 99.5 ± 5% | 99.4 ± 0.28% | 97.7 ± 4.1% | 102 ± 9.9% | 95 ± 4.2% | 73.8 ± 28% | 0 | > 10 µM | 98.1 ± 5.1% | 104 ± 3.2% | 97.4 ± 1.7% | 100.7 ± 0.92% | 95.4 ± 1.4%
CCOC(=O)c1ccc(OC(=O)CCCCCNC(=N)N)cc1 [gabexate] | 1.4 | 0 | 0 | 0 | > 10 µM | > 10 µM | > 10 µM | > 10 µM | 88.1% | 95.9% | 84.8% | 86.9% | 87.1% | 101% | 104% | 98% | 98.4% | 100% | 94.2% | 95.6% | 99.2% | 95.2% | 89.4% | 97.1% | 115% | 96.9% | 95.6% | 103% |  |  |  |  |  |  | 
